The values that follow come from PubChem BioAssay AID1996.

In brackets after ≈: the same amount, converted by molar mass.

By solubility (kinetic) is commonly meant the concentration staying in solution when a stock, usually in DMSO, is diluted into the medium.

The conditions of the series: buffer; pH 7.4; 200.0 µM.
`Cc1nc2ccsc2c(=O)n1-c1cccc(Cl)c1` showed a kinetic solubility of more than 41.5 µg/mL.
In turn, `COCc1cc(=O)[nH]c2cc(NC(=O)c3cccc(OC)c3)c(C)cc12` yielded a kinetic solubility of 1.1 µg/mL (≈ 3.12 µM).
The compound `CCCNC(=O)NC(=O)CN1CCCC1c1ccc2c(c1)OCCO2` (stereo not drawn) yielded a solubility (kinetic) of more than 52.1 µg/mL.
With `COc1ccc(NC(=O)CC(=O)Nc2ccc(OC)cc2)cc1` the figure was 1.2 µg/mL (≈ 3.82 µM); with `N#CC(=C=[N-])/C=C(\C(=O)c1ccccc1)[n+]1ccccc1`, more than 41 µg/mL.
Compound `CC1CCCCN1C(=O)c1ccc(C(=O)c2ccccc2)cc1` (stereo not drawn) had a kinetic solubility of more than 46.1 µg/mL.
`C=CCSc1nc2sc3c(c2c(=O)n1-c1ccc(C)cc1)CCN(C)C3` showed a kinetic solubility of 22.3 µg/mL (≈ 58.1 µM).
For the compound `Cn1c(=O)c2c(ncn2CC(=O)OCC(=O)Nc2cc(Cl)ccc2C#N)n(C)c1=O`, the kinetic solubility was 63.2 µg/mL (≈ 147 µM).
As to `O=C(c1cccc(Br)c1)N1CCN(c2ccccn2)CC1`, the solubility (kinetic) was more than 51.9 µg/mL.
The compound `COc1ccccc1C(=O)NC(CCSC)C(=O)Nc1ccc(C)c(S(=O)(=O)N2CCOCC2)c1` (stereo not drawn) came in with a solubility (kinetic) of 19.2 µg/mL (≈ 36.8 µM).
In the case of `CC(=O)c1csc(COc2ccccc2)n1`, the solubility (kinetic) worked out at 27.3 µg/mL (≈ 117 µM).
`CCOC(=O)C1CCN(C(=O)C2COc3ccccc3O2)CC1` (stereo not drawn) returned a kinetic solubility of 32.3 µg/mL (≈ 101 µM).
Next, `CCOC(=O)C(=CNc1cc(OC)ccc1-n1cccc1)C(=O)OCC`: 1 µg/mL (≈ 2.79 µM); `c1ccc2c3c([nH]c2c1)C1(CCNCC1)NCC3`: 34.7 µg/mL (≈ 144 µM); `O=C(Nc1ccccc1)c1cn2ccccc2n1`: 14.7 µg/mL (≈ 62 µM).
Next, `CC1(C)Cc2c(c(N3CCCC3)nc3sc4c(N5CCNCC5)ncnc4c23)CO1`: 28.6 µg/mL (≈ 67.4 µM); `O=C(Cc1ccc(Cl)c(Cl)c1)Nc1cccc2ncccc12`: 2.1 µg/mL (≈ 6.34 µM).
On to `CN(C(=O)c1ccc2c(c1)CCO2)C(C)(C)C`, for which the solubility (kinetic) is 23.9 µg/mL (≈ 102 µM).
`CCOc1ccc(N2C(=O)C3C4C=CC([C@H]5CC45)[C@@H]3C2=O)cc1` (stereo partly drawn) displayed a solubility (kinetic) of 8.5 µg/mL (≈ 27.5 µM).
`COC(=O)c1ccc(NC(=S)NC(=O)c2cccnc2)cc1`: the solubility (kinetic) amounted to 3.7 µg/mL (≈ 11.7 µM).
The compound `O=C(Nc1ccccc1NS(=O)(=O)c1ccc(F)cc1)C1CCC1` had a kinetic solubility of 21.1 µg/mL (≈ 60.6 µM).
`CC1CN(CCn2cnc3c(N)ncnc32)CC(C)O1` (stereo not drawn) displayed a kinetic solubility of 36.9 µg/mL (≈ 134 µM).
Take `CCN(CC(=O)NCc1ccc(F)cc1)C(=O)COc1ccccc1[N+](=O)[O-]`: the solubility (kinetic) was more than 58.4 µg/mL.
`O=C(NOCc1ccccc1)c1ccc([N+](=O)[O-])cc1`: the solubility (kinetic) is more than 40.8 µg/mL.
With `COc1ccc(-c2cc(C(=O)Nc3cccc(Cl)c3)no2)cc1` the figure was less than 0.4 µg/mL; with `Cc1cc(NC(=O)CC(C)C)c(=O)n(Cc2ccccc2F)c1`, 37.3 µg/mL (≈ 118 µM).
Regarding `CCOc1ccc(S(=O)(=O)N(C)CC(=O)NCc2ccccn2)cc1`, the kinetic solubility was found to be 50.2 µg/mL (≈ 138 µM).
The compound `O=S(=O)(Nc1ccc(Br)cc1)N1CCOCC1` yielded a solubility (kinetic) of more than 48.2 µg/mL.
Consider `COc1cc(C2NC(=S)NC(c3ccccc3)=C2C(C)=O)ccc1O` (stereo not drawn), for which the kinetic solubility is 43.8 µg/mL (≈ 124 µM).
With `Cc1cc(C(=O)N2CCN(Cc3ccccc3)CC2)ccc1[N+](=O)[O-]` the figure was more than 50.9 µg/mL.
Take `COc1ccc(Nc2nnc(SC(C)C(=O)NC3CC3)s2)cc1` (stereo not drawn): the kinetic solubility was more than 52.6 µg/mL.
As to `O=C(Cc1ccc(O)cc1)NCCNC(=S)NCc1ccccc1`, the kinetic solubility came out at 50.3 µg/mL (≈ 146 µM).
In turn, `Cc1ccc(NS(=O)(=O)c2cccc3cccnc23)c(Cl)c1` returned a solubility (kinetic) of 1.1 µg/mL (≈ 3.31 µM).
The compound `Cc1ccc(SCC(=O)NCC2CCCO2)cc1` (stereo not drawn) yielded a solubility (kinetic) of more than 39.8 µg/mL.
Next, `CCc1ccc(NS(=O)(=O)c2ccc3oc(=O)ccc3c2)cc1`: 41.2 µg/mL (≈ 125 µM).
Consider `Clc1cccc(CN2CCCCCC2)c1Cl`, for which the kinetic solubility worked out at 4.8 µg/mL (≈ 18.6 µM).
With `CNc1nc(Cl)nc(Nc2ccccc2)n1` the figure was 2 µg/mL (≈ 8.49 µM); with `CCCNC(=O)c1ccccc1NC(=O)C1=CSCCO1`, more than 46 µg/mL.
In the case of `CN1CCCN(Cc2nc(-c3ccc(Cl)cc3)no2)CC1`, the solubility (kinetic) was determined as 40.4 µg/mL (≈ 132 µM).
Next, `O=C(COC(=O)CCC(=O)c1ccc(F)cc1)NCc1ccc(Cl)cc1`: 10.6 µg/mL (≈ 28.1 µM); `O=C(/C=C/c1ccccc1)Nc1ccc(NC(=O)c2cccs2)cc1`: less than 0.4 µg/mL.
On to `O=C(Cc1ccc(Br)cc1)NCc1ccccc1`, for which the solubility (kinetic) is 4.1 µg/mL (≈ 13.5 µM).
Compound `Cc1cc2c(SCC(=O)NC3CCCC3)ncnc2s1` registered a kinetic solubility of 30.2 µg/mL (≈ 98.2 µM).
Turning to `CCCNC(=S)N1CCC(C(=O)c2ccc(Cl)cc2)CC1`, the kinetic solubility was 2.2 µg/mL (≈ 6.77 µM).
Regarding `CC(NC(=O)C12CC3CC(CC(O)(C3)C1)C2)c1ccccc1` (stereo not drawn), the solubility (kinetic) is more than 44.9 µg/mL.
As for `CCOC(=O)c1cc(S(=O)(=O)NCc2ccco2)cn1C`, the kinetic solubility was more than 46.9 µg/mL.
`Cc1onc(-c2ccccc2)c1C(=O)N1CCCC(C(F)(F)F)C1` (stereo not drawn) gave a kinetic solubility of 42.7 µg/mL (≈ 126 µM).
In turn, `NCCCNc1nc(N)c([N+](=O)[O-])c(NC2CCCCC2)n1` returned a kinetic solubility of more than 46.4 µg/mL.
Take `O=C(NC1CCSc2ccccc21)c1cccc(Cl)c1` (stereo not drawn): the kinetic solubility came to 2.1 µg/mL (≈ 6.91 µM).
`CCNS(=O)(=O)c1ccc(CCC(=O)N2CCOCC2)cc1` showed a solubility (kinetic) of more than 49 µg/mL.
In turn, `CCOC(=O)c1cc2sccc2n1CC(=O)C(C)(C)C` returned a solubility (kinetic) of less than 0.6 µg/mL.
Take `OCCN1CCN(Cc2ccc3ccccc3c2)CC1`: the kinetic solubility was 26.9 µg/mL (≈ 99.5 µM).
`Nc1ccc(Cl)c(S(=O)(=O)Nc2ccccc2Cl)c1` registered a kinetic solubility of more than 47.6 µg/mL.
In turn, `O=C(NCc1ccco1)c1ccc(S(=O)(=O)N2CCCCC2)cc1` returned a solubility (kinetic) of 1.9 µg/mL (≈ 5.45 µM).
Compound `CC(=O)c1c(C)[nH]c(-c2ccccc2)nc1=S` yielded a kinetic solubility of 33.2 µg/mL (≈ 136 µM).
`CN1CCN(c2nc(Nc3ccccc3)nc(N)c2[N+](=O)[O-])CC1` gave a solubility (kinetic) of 47.5 µg/mL (≈ 144 µM).
`CCN(CC)S(=O)(=O)c1ccc(N2CCc3ccccc3C2)nc1` had a kinetic solubility of 25.8 µg/mL (≈ 74.7 µM).
The compound `CCOCCCNCC(=O)Nc1cc(S(=O)(=O)N2CCOCC2)ccc1N1CCOCC1` registered a solubility (kinetic) of more than 70.6 µg/mL.
Regarding `COc1cccc(NC2=NCCCS2)c1`, the solubility (kinetic) is more than 33.3 µg/mL.
With `Cc1ccc(NC(=O)NC(=O)c2cnccc2C(F)(F)F)c(C)c1` the figure was 10.9 µg/mL (≈ 32.3 µM); with `CC1CC(Nc2ccccc2)c2ccccc2N1C(=O)c1ccco1` (stereo not drawn), 13.2 µg/mL (≈ 39.7 µM); with `O=Cc1c(-c2ccccc2)nc2ccccn12`, more than 33.3 µg/mL.
Take `N#CC1(P(=O)(c2ccccc2)c2ccccc2)CCCC1`: the kinetic solubility was more than 44.3 µg/mL.
`COC(=O)c1ccc(S(=O)(=O)N2CCN(CCO)CC2)n1C` displayed a kinetic solubility of 45.6 µg/mL (≈ 138 µM).
As for `NC(=O)c1ccccc1NC(=O)c1cccc(C(=O)Nc2ccccc2C(N)=O)n1`, the kinetic solubility worked out at 5.3 µg/mL (≈ 13.1 µM).
Compound `C(=N\N1CCOCC1)/c1ccsc1.O=P(O)(O)O` gave a kinetic solubility of more than 44.1 µg/mL.
In turn, `CCCCCC(=O)Nc1ccc(S(=O)(=O)Nc2nccc(C)n2)cc1` returned a solubility (kinetic) of more than 54.4 µg/mL.
Consider `COc1ccccc1CNC(=O)COC(=O)c1cccs1`, for which the solubility (kinetic) was 8.4 µg/mL (≈ 27.5 µM).
With `Cc1cccnc1NC(=S)Nc1ccc(Cl)c(Cl)c1` the figure was 3.7 µg/mL (≈ 11.9 µM); with `COC(=O)c1cccc(CSC(=S)N2CCCC2)c1`, 3.6 µg/mL (≈ 12.2 µM).
Regarding `CN(C)c1ccc(Nc2cc(Cl)ncn2)cc1`, the kinetic solubility turned out to be 9 µg/mL (≈ 36.2 µM).
As for `Nc1nnc(SCC(=O)NC2CCCCCCC2)s1`, the kinetic solubility is more than 45.1 µg/mL.
In turn, `N=C1S/C(=C\c2ccco2)C(=O)N1c1nccs1` gave a kinetic solubility of 17.9 µg/mL (≈ 64.5 µM).
Turning to `Cc1cc(C)nc(SSc2nc(C)cc(C)n2)n1`, the solubility (kinetic) is 40.6 µg/mL (≈ 146 µM).
The compound `Cc1ccc(NC2=C(Cl)C(=O)OC2OC(C)C)cc1` (stereo not drawn) came in with a solubility (kinetic) of 34.8 µg/mL (≈ 124 µM).
With `Cc1ccc(S(=O)(=O)N2CCOCC2)cc1C(=O)c1nccn1C` the figure was more than 52.4 µg/mL; with `Cc1sc(NC(=O)C2=COCCO2)c(C#N)c1C`, 5.9 µg/mL (≈ 22.3 µM).
With `Cc1cc(C(=O)CSc2nc(N)cc(N)n2)c(C)n1CC1CCCO1` (stereo not drawn) the figure was more than 54.2 µg/mL; with `CC(C)c1nc(SCC(=O)Nc2nccs2)c2ccccc2n1`, 0.6 µg/mL (≈ 1.74 µM); with `Cc1ccc(C(=O)COC(=O)c2cccc([N+](=O)[O-])c2)s1`, 7.1 µg/mL (≈ 23.3 µM).
`COCCn1c(C)cc(C(=O)COC(=O)CNC(=O)c2ccco2)c1C`: the kinetic solubility stood at 45.2 µg/mL (≈ 125 µM).
Turning to `N/C(=N\OC(=O)c1cccs1)C1(c2ccc(Cl)cc2Cl)CC1`, the solubility (kinetic) turned out to be 12.3 µg/mL (≈ 34.6 µM).
Next, `COc1ccc(C)cc1Nc1c2c(nc3ccccc13)CCC2`: more than 45.7 µg/mL; `O=C(NCC(=O)N1CCN(Cc2ccc3c(c2)OCO3)CC1)c1ccccc1F`: 1.4 µg/mL (≈ 3.51 µM); `Cc1cc(=O)cc(C)n1-c1ccc(F)cc1F`: more than 35.3 µg/mL.
Next, `O=C(NCc1ccccc1)C(=O)Nc1cccc(C(=O)O)c1`: more than 44.7 µg/mL.
For the compound `CCOc1ccc(S(=O)(=O)N(CC)CC(=O)NC2CC2)cc1`, the solubility (kinetic) was more than 49 µg/mL.
Next, `Cc1ccc(S(=O)(=O)NC2=NCN(C(C)C)CN2)cc1`: more than 44.5 µg/mL.
With `COc1cc(C)c(COc2ncnc3ccccc23)cc1OC`, the kinetic solubility came to 40.1 µg/mL (≈ 129 µM).
Next, `COc1ccc(OCC(=O)O/N=C(\N)c2ccc(OC)cc2)cc1`: 1.2 µg/mL (≈ 3.63 µM); `COc1ccc(/C=C/C(=O)OCC(=O)NCCc2ccccc2)c(OC)c1`: 8.5 µg/mL (≈ 23 µM).
Next, `COc1cc(C(NC(C)=O)NC(C)=O)ccc1OCc1ccccc1`: more than 51.4 µg/mL; `CN(C)c1ccc(C(=O)/C=C/c2cccnc2)cc1`: 6.7 µg/mL (≈ 26.6 µM).
`COc1ccc(S(=O)(=O)NCCCN2CCCC2=O)cc1OC` showed a solubility (kinetic) of 47.4 µg/mL (≈ 138 µM).
As to `CN(Cc1ccccc1)S(=O)(=O)c1ccc(NC(=O)C2CCCCC2C(=O)O)cc1` (stereo not drawn), the solubility (kinetic) is more than 64.6 µg/mL.
With `CCOc1ccc(S(=O)(=O)N2CCCCC2)c(C)c1C` the figure was 9.7 µg/mL (≈ 32.6 µM); with `CC(OC(=O)CC1CCCC1)C(=O)Nc1ccc(Cl)cn1` (stereo not drawn), 30.9 µg/mL (≈ 99.4 µM); with `COc1cccc(Nc2nc3ccc(OC)cc3s2)c1`, 2.8 µg/mL (≈ 9.78 µM).
`C=CCNC(=S)Nc1ccc2cn[nH]c2c1` had a solubility (kinetic) of more than 34.8 µg/mL.
With `Cc1ccc2[nH]c(CNC(=O)c3ccccc3F)cc2c1` the figure was 5.4 µg/mL (≈ 19.1 µM).
Next, `CCCN(C(=O)CSc1ncccn1)C1CCS(=O)(=O)C1` (stereo not drawn): more than 49.4 µg/mL; `CCOc1ccc(C(=O)N2CCn3c2nc2ccccc23)cc1`: 6.4 µg/mL (≈ 20.8 µM); `COc1cc(/C=C/C(=O)OCC(=O)NC(=O)C2COc3ccccc3O2)ccc1OC(F)F` (stereo not drawn): 15.4 µg/mL (≈ 33.2 µM).
